≈ marks a conversion by molar mass, not a printed value. Where two headings read alike, the source gives them in different places. Residues, ends and D or L forms follow the SMILES beside them.
Assays:
[1] = Acute toxicity in mice (maximum tolerated dose, IV bolus); type: in vivo, mouse; details: mouse, in vivo, iv, single IV bolus dose, replicates 1-4; read-out: MTD, single replicate
Procedure, shortened: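 Female Swiss mice (7 weeks, 22–28 g) given single IV tail-vein bolus of lipopeptide in 0.9% saline, dosed as mg/kg free base. Clinical toxicity signs monitored over 0–24 h, most frequently in first 2 h.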

[2] = system: K. pneumoniae FADDI-KP132; assay: MIC, polymyxin-resistant isolate; type: cell-based, Klebsiella pneumoniae; details: mcr-1 positive
Method: (§1) MICs were determined in cation-adjusted Mueller–Hinton broth (CaMHB) by the broth micro-dilution method against ATCC strains and clinical isolates. MICs in the presence of Survanta® were determined as described above against P. aeruginosa ATCC 27853. In the 100 μL of fresh CaMHB containing polymyxins, 10% Survanta® (v/v, 2.5 mg/mL phospholipids) was added. MICs in the presence and absence of Survanta® were compared to determine the effect of binding to lung surfactant on the antibacterial activity of polymyxins.

A. baumannii FADDI-AB144 = type: cell-based, Acinetobacter baumannii
Procedure, shortened: (§2)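 Read-out is the minimum inhibitory concentration, obtained by serially diluting compound in cation-adjusted Mueller–Hinton medium and exposing each isolate in microdilution format.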

A. baumannii FADDI-AB161 = type: cell-based, Acinetobacter baumannii
Procedure, shortened: as §2

A. baumannii FADDI-AB051 = type: cell-based, Acinetobacter baumannii
Procedure, shortened: as §2

[3] = system: P. aeruginosa FADDI-PA102; assay: MIC, polymyxin-resistant isolate; type: cell-based, Pseudomonas aeruginosa; details: carbapenem-resistant
Method: as §1

K. pneumoniae Kp MKP103 = type: cell-based, Klebsiella pneumoniae; details: polymyxin-resistant
Procedure, shortened: as §2

[4] = system: K. pneumoniae FADDI-KP027; type: cell-based, Klebsiella pneumoniae
Procedure, shortened: as §2

[5] = type: in vitro ADME; details: plasma
Method: The plasma pharmacokinetic profiles of F365 and polymyxin B were assessed in Swiss mice (female, 7-week-old, 22–28 g) after a single intraperitoneal dose (5 mg/kg, n = 3). Blood samples were collected at various time points over 24 h post dosing for analysis. The plasma pharmacokinetic profiles of F365 (n = 5) and polymyxin B (1 mg/kg, n = 11) in Sprague-Dawley rats (male, 10-week-old, 280 to 330 g) were assessed after intravenous administration (1 min) of F365 and polymyxin B via an indwelling jugular vein cannula. Blood samples (~0.3 mL) were collected via an indwelling carotid artery cannula at various time points over 24 h post dosing. Urine samples were collected at 4 °C using a metabolic cage during the period between 0 and 24 h post dosing. Concentrations of F365 and polymyxin B in plasma and urine samples were determined using LC-MS/MS and pharmacokinetic analysis was conducted using WinNonlin (Pharsight Corp., Mountain View, CA). The ELF pharmacokinetic profiles of F365 and polymyxin B was determined in neutropenic Swiss mice (female, 7-week-old, 22–28 g) after subcutaneous injection (40 mg/kg, n = 3). Bronchoalveolar lavage (BAL) samples were collected at various time points over 24 h post dosing from the cannulated trachea using Milli-Q water as BAL washing media. The average volume of ELF in mice was calculated by the ratio of urea concentrations in plasma and BAL samples. Concentrations of F365 and polymyxin B in plasma and BAL were analyzed by LC-MS/MS. Pharmacokinetic parameters were calculated using a non-compartment model with WinNonlin. For mouse, rat, and human plasma protein binding of F365 and polymyxin B, pooled plasma samples (n = 3) from each species were spiked with F365 or polymyxin B. The spiked plasma samples were subjected to ultrafiltration and the corresponding filtrates were analyzed by LC-MS/MS to determine the concentration of F365 and polymyxin B and the protein binding in each species.

[6] = Distribution, accumulation and metabolism in mouse kidneys (ME-SALDI-MS imaging, histology); type: in vivo; details: mouse, in vivo
Method: At 2 h after the last dose on Day 2, mice were rapidly euthanized. The left kidney was collected, flash-frozen in liquid nitrogen, and stored at -80 C for MS imaging analysis. The right kidney was fixed in 10% formalin for histological examination (Histopathology and Organ Pathology Unit at the University of Melbourne). The level of histological damage to the kidneys was graded as previously described. […] A total of 1 μL was spotted onto electrochemically etched, porous-silicon semiconductor substrates for desorption/ionization on silicon (DIOS)[39]. […] For lipopeptide distribution in mouse kidneys, serially sectioned 8-μm frozen slices of the kidney were loaded onto DIOS substrates and coated with a thin layer of α-CHCA using a matrix sprayer (TM-Sprayer, HTX) for MSI analysis. […] Mounted tissue was scanned for imaging alignment (Epson Perfection […]) and calibrated as previously described. Resulting polymyxin maps were visualized and normalized against the total ion current (TIC) of each section using IonView software (Shimadzu). Lipopeptide accumulation in mouse kidneys was determined by simultaneous […] analysis of kidney tissue from treated animals and serial dilutions of the drug deposited on control kidney tissue. […] The signal intensities were compared to the corresponding concentration standard curve to calculate the concentration of lipopeptide present. Putative metabolites in the kidneys treated with lipopeptides were identified by […]. Control kidney sections were used to differentiate lipopeptide metabolites from endogenous metabolites and MS/MS data from lipopeptide standards were used to differentiate lipopeptide metabolites from the parent ion generated via CID processed in the acquisition software (MALDI Solutions, Shimadzu). Levels of accumulated lipopeptide metabolites were determined by normalization to the parent ion in MSI data.

## CCCCCCCC(=O)N[C@@H](CCN)C(=O)N[C@H](C(=O)N[C@@H](CN)C(=O)N[C@H]1CCNC(=O)[C@H]([C@@H](C)O)NC(=O)[C@H](CCN)NC(=O)[C@H](CCN)NC(=O)[C@H](CC)NC(=O)[C@@H](CC(C)C)NC(=O)[C@H](CCN)NC1=O)[C@@H](C)O [Lipopeptide F287] (HELM PEPTIDE1{[CCCCCCCC(=O)[*:2]].[Dab].T.[NC[C@H](N[*:1])C(=O)[*:2]].[Dab].[Dab].[dL].[Abu].[Dab].[Dab].T}$PEPTIDE1,PEPTIDE1,5:R3-11:R2$$$V2.0)
[1]
  MTD: 6 mg/kg

## CC[C@@H]1NC(=O)[C@@H](CC(C)C)NC(=O)[C@H](CCN)NC(=O)[C@@H](NC(=O)[C@H](CN)NC(=O)[C@@H](NC(=O)[C@H](CCN)NC(=O)c2ccc(Cl)cc2Cl)[C@@H](C)O)CCNC(=O)[C@H]([C@@H](C)O)NC(=O)[C@H](CCN)NC(=O)[C@H](CCN)NC1=O [Lipopeptide F365] (HELM PEPTIDE1{[O=C(c1ccc(Cl)cc1Cl)[*:2]].[Dab].T.[NC[C@H](N[*:1])C(=O)[*:2]].[Dab].[Dab].[dL].[Abu].[Dab].[Dab].T}$PEPTIDE1,PEPTIDE1,5:R3-11:R2$$$V2.0)
[2]
  MIC K. pneumoniae FADDI-KP132: 8 µg/mL (≈ 6.9 µM)
A. baumannii FADDI-AB144; FADDI-AB144
  MIC A. baumannii FADDI-AB144: 32 µg/mL (≈ 27.6 µM)
A. baumannii FADDI-AB161; FADDI-AB161
  MIC A. baumannii FADDI-AB161: 1 µg/mL (≈ 0.862 µM)
A. baumannii FADDI-AB051; FADDI-AB051
  MIC A. baumannii FADDI-AB051: 0.5 µg/mL (≈ 0.431 µM)
[3]
  MIC P. aeruginosa FADDI-PA102: 4 µg/mL (≈ 3.45 µM)
K. pneumoniae Kp MKP103
  MIC K. pneumoniae Kp MKP103: 8 µg/mL (≈ 6.9 µM)
[4]; FADDI-KP027
  MIC K. pneumoniae FADDI-KP027: > 32 µg/mL
[1]
  MTD: 13 mg/kg
[5]; human
  fraction unbound: 0.55
[5]; mouse
  fraction unbound: 0.64
[5]; rat
  fraction unbound: 0.67
[6]; female, Swiss, 10 umol/kg, 10 μmol/kg SC, 6 doses Day 1 and 3 doses Day 2, 2 h after last dose, read-out: Concentration in the kidney cortex region
  level at time molar: 20.8 µM
[6]
  M1 metabolite in kidneys: no M1 metabolite detected
  major metabolite in kidneys: M3

## Polymyxin B [reference compound]
[2]
  MIC K. pneumoniae FADDI-KP132: 8 µg/mL
A. baumannii FADDI-AB144; polymyxin-resistant
  MIC A. baumannii FADDI-AB144: 16 µg/mL
A. baumannii FADDI-AB161; polymyxin-resistant
  MIC A. baumannii FADDI-AB161: 8 µg/mL
A. baumannii FADDI-AB051; carbapenem-resistant
  MIC A. baumannii FADDI-AB051: 0.5 µg/mL
[3]
  MIC P. aeruginosa FADDI-PA102: 4 µg/mL
K. pneumoniae Kp MKP103
  MIC K. pneumoniae Kp MKP103: 16 µg/mL
[4]; polymyxin-resistant
  MIC K. pneumoniae FADDI-KP027: > 32 µg/mL
[5]; human
  Protein binding: 68%
[5]; mouse
  Protein binding: 95%
[5]; rat
  Protein binding: 80%

— publication PMC8956739, “A synthetic lipopeptide targeting top-priority multidrug-resistant Gram-negative pathogens” (Nature Communications, 2022)
